# “Also recorded” adds a separate entry of the source. Read-outs that look alike come from different tables or passages of the source.
# Assays:
# muscarinic receptor = details: cited from earlier work
# [1] = tested on: guinea pig tracheal rings; test: Relaxation or tension of pre-contracted tracheal rings
# [2] = tested on: guinea pig tracheal rings; test: Acetylcholine-induced contraction of isolated tracheal rings; details: for spasmogenic activity by itself: absence of ACh; for minimal effective concentration: Cavia porcellus, 5 min
# [3] = tested on: guinea pig tracheal rings; details: atropine at 3, 10 and 30 nM; cited from earlier work
# [4] = tested on: guinea pig tracheal rings; details: cited from earlier work
# [5] = tested on: chicken biventer cervicis muscle; test: Chicken biventer cervicis muscle in vitro, assay for antinicotinic activity; type: cell-based
# Source text: As observed by the present inventors, MEG was ineffective in altering the amplitude of tension produced by supramaximal electrical stimulation, or ACh-produced contraction of the chicken biventer cervicis muscle in vitro, an assay for antinicotinic activity (B. L. Ginsborg et al., Br. J. Pharmacol. 15:410 (1960); H. A. N. El-Fawal et al., Neurotoxicology 9:625 (1988)).
# squirrel monkeys = test: Whole body plethysmograph, airway conductance / bronchoconstriction in vivo; design: species or system squirrel monkey
# Experimental: (§1) Squirrel monkeys or guinea pigs were restrained in a whole body plethysmograph, a sealed box with a separate face mask for each animal. A pneumotachograph and stain gauge assembly permitted the measurement of flow. The ratio of derivatives of flow to box pressure yield a measure of airway conductance (SGAW). MEG was administered at concentrations up to 15 mg/liter of air.
# This was studied by exposing a population of squirrel monkeys, which were well-trained and adapted to the experimental setting, to aerosolized cholinergic agonists and then studying the effects of MEG or cocaine pretreatment on the response to cholinergic provocation.
# Care was taken to exclude any other source of potential measurement artifact, including reducing dead volumes, examining for leaks, recalibration, and so forth. The particles were dehydrated to reduce their size and facilitate airway entry. The monkeys' nares were occluded to compel mouth breathing. Greater methacholine concentrations in the nebulizer were tested until dramatic decreases in heart rate occurred, consistent with significant systemic absorption of this relatively short duration cholinergic agonist.
# This may reflect the antihistaminic activity of MEG observed in vitro.
# guinea pigs = test: Inhalation exposure safety in guinea pigs; type: in vivo, guinea pig
# Experimental: as §1
# Guinea pigs are known to be highly sensitive to pulmonary manipulations.
# [6] = tested on: guinea pig tracheal rings; test: Carbachol-induced contraction of isolated tracheal rings; details: Cavia porcellus, 5 min, read-out: reduction of carbachol-induced contraction
# [7] = tested on: guinea pig tracheal rings; test: Histamine-induced contraction of isolated tracheal rings
structure (smiles),measurement,setting,value
"COC(=O)[C@H]1[C@@H](OC(=O)c2ccccc2)C[C@@H]2CC[C@H]1N2C [cocaine, reference compound]",concentration with antimuscarinic properties as assayed by QNB binding,muscarinic receptor,18 µM
same,effect on tissue pre-contracted with ACh,[1]; cocaine from 10^-4 M to 2×10^-3 M,further increase in dose-dependent tension
same,spasmogenic activity by itself,[2],did not produce tension in the absence of ACh
same,spasmogenic activity by itself,[2]; listed as Cocaine,did not display any spasmogenic activity
same,effect on maximum tension produced by ACh,[2]; cocaine 5×10^-6 M,increased the maximum tension produced
same,lowering of the threshold at which ACh produced tension,[2]; cocaine 5×10^-6 M,two orders of magnitude
same,concentration that decreased ACh-induced tension,[2]; cocaine HCl,10^-4 M
same,concentrations that increased ACh-induced tension,"[2]; cocaine HCl, 5 min incubation",10^-7 to 10^-5 M
same,effect on maximum response relative to ACh alone,[2]; cocaine at 10^-4 M,reduced the maximum response to a third
same,effect on threshold for contraction elicited by ACh,[2]; cocaine at 10^-4 M,increased the threshold
same,effect on threshold for contraction elicited by ACh,[2]; cocaine at 10^-6 M,lowered the threshold
same,effect on tension produced by ACh at the highest ACh concentration,"[2]; cocaine at 10^-7 M, ACh 2×10^-3 M",increased the tension
same,recovery of responsiveness to ACh after exposure,[2]; cocaine at concentrations below 10^-4 M,restored with no desensitization
CN1[C@@H]2CC[C@H]1C[C@@H](OC(=O)C(CO)c1ccccc1)C2 (some centres unmarked) [atropine],kind of antagonism of ACh-induced contraction,[3],competitively antagonized ACh-induced contraction
same,carbachol concentration at which the effect was surmountable,[4]; 10^-7 M atropine,10^-4 M
same,"magnitude of reduction at any given carbachol concentration, compared with MEG",[4]; 10^-7 atropine,usually less than that produced by MEG
"COC(=O)C1=CCC2CCC1N2C (centres unmarked) [MEG, anhydroecgonine methyl ester]",effect on amplitude of tension from supramaximal electrical stimulation or ACh-produced contraction,[5],ineffective
same,bronchoconstriction in response to inhaled histamine,squirrel monkeys; animals pretreated with MEG,"bronchoconstriction, but only at unusually high levels"
same,airway effect of MEG given alone by inhalation,"squirrel monkeys; squirrel monkeys or guinea pigs, up to 15 mg/liter of air",Bronchoconstriction was observed
same,bronchoconstriction in response to aerosolized ACh or methacholine,squirrel monkeys; squirrel monkeys with extensive histories of exposure to MEG,unable to produce bronchoconstriction; also recorded: no bronchoconstriction observed
same,mortality,guinea pigs; 14 mg/liter of air by inhalation,Only one exposed guinea pig died
same,margin of safety,guinea pigs; in vivo studies,wide margin of safety
same,effect on rings with mechanically elevated tension,[1],failed to relax
same,concentrations for relaxation relative to those antagonizing ACh-induced contraction with preincubation,[1]; pre-contraction with 10^-3 ACh,two orders of magnitude higher
same,effect on rings pre-contracted with ACh,[1]; pre-contraction with 10^-3 ACh,dose-dependent relaxation
same,inhibition at 0.1 µM,[6],50%
same,effect on histamine threshold,[7]; MEG 10^-7,shifting the histamine threshold upwards
same,effect on contraction-inducing action of histamine,[7]; MEG 10^-7 and 10^-9 M,antagonized the contraction-inducing action of histamine
same,cholinergic agonist activity,[2],lack any cholinergic agonist activity
same,kind of antagonism of ACh-induced contraction,[2]; ACh up to 2×10^-3 M,reduced the magnitude of contraction produced by ACh without changing the tissue threshold of contraction; also recorded: could not be overcome; also recorded: non-competitively antagonized acetylcholine; also recorded: potent non-competitive cholinergic antagonist
same,minimal effective concentration,[2]; read-out: concentration at and above which insurmountable non-competitive antagonism was produced,≥ 0.001 µM
same,minimal effective concentration,[2]; read-out: concentration at and above which peak tension produced by ACh was reduced,≥ 0.001 µM
same,minimal effective concentration,[2]; read-out: lowest level showing anticholinergic properties,0.1 µM
same,effect of MEG on cocaine's sensitization/potentiation of ACh,[2]; MEG 10^-7 M with cocaine 5×10^-6 M,antagonized cocaine's potentiation of acetylcholine's efficacy; also recorded: reduced the sensitization to ACh; also recorded: non-competitively antagonized ACh in the presence of cocaine sensitization
same,recovery of responsiveness to ACh after exposure,[2]; after washing of the preparation,full responsiveness to ACh could not be restored; also recorded: no recovery after washing of the preparation; also recorded: irreversible
